pEC50: −log10 of the molar value. Where two headings read alike, the source gives them in different places.
Legend:
human PPARγ = biological target: T1, human PPARγ (Homo sapiens, UniProt P37231); experiment: PPARγ activation test (GAL-4/luciferase reporter in NIH/3T3 cell); format: cell-based; settings: luciferase activity, 24 hrs incubation
T1 construct: expressed in transfected cells; host or cells: NIH/3T3
T1 sequence (P37231 238-503 limits assumed): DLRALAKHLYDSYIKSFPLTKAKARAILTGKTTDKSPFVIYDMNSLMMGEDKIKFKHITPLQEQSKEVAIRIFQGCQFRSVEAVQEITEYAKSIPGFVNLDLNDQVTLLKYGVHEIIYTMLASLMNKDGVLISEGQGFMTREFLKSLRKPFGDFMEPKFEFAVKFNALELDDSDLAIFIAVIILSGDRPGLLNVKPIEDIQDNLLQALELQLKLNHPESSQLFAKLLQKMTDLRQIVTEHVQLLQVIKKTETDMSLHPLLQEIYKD
Description: The activity for PPARγ activation was examined as follows.
The vector fused with ligand binding domain of a human PPARγ gene and DNA binding site of a yeast GAL-4 gene, and luciferase reporter vector were simultaneously transfected in NIH/3T3 cell. The cells were cultured for 24 hrs. The solution containing the cells at a concentration of 2×10^4 cells/well was placed on a 96-well plate. Then, each of the test compounds of the present invention and the control group without test compounds was added thereto. After incubating for 24 hrs, the cells were subjected to lysis.

C57/BL6J mice [1] = experiment: Adverse side effects check (weight, heart weight, liver weight, GPT/GOT) in high fat diet C57/BL6J mice; settings: for GOT / GPT / Heart Weight / Liver Weight / Weight: high fat diet C57/BL6J mice
Description: (§2) To check possible adverse side effects caused by the administration of the compound, the weight, heart weight and liver weight of each mouse were measured. GPT and GOT values were also calculated by employing a kit available in the market.

ob/ob mice [2] = settings: relative to control
Description: The effectiveness in lowering blood glucose level of the inventive compound was examined using ob/ob mice (male, 8-9 week old), a type 2 diabetes model animals which expresses signs of hyperglycemia and hyperinsulinemia, bred in house facilities of Korea Research Institute of Chemical Technology.
(§1) The resulting solution was intraperitoneally administered to the mice at a dose of 50 mg/kg, once a day for 5 days, or orally administered to the mice, at a dose of 100 mg/kg, twice a day for 14 days. Days 1, 3 and 5 were selected for intraperitoneal administration, and days 5, 10 and 14, for oral administration, to collect blood samples for measuring the blood glucose levels. […] Upon the completion of the oral administration for 14 days, the mice were fasted for 16 hrs to perform OGTT (Oral Glucose Tolerance Test) to determine the changes in insulin sensitivity induced by the oral administration. After administrating glucose to the mice at a dose of 2 g/kg orally, blood samples were collected at 0, 15, 30 60 and 120 minutes to measure blood glucose levels.

C57/BL6J mice [3] = settings: high fat diet C57/BL6J mice, after oral administration for 14 days once a day
Description: as §1

ob/ob mice [4] = settings: total amount of blood glucose over 120 minutes after glucose 2 g/kg orally, after 14 days oral administration
Description: as §1

C57/BL6J mice [5] = test system: C57/BL6J mice
Description: as §2

[6] = high fat diet C57/BL6J mice, oral administration for 14 days once a day

SMILES: CCOC(=O)C1=C(c2ccccc2)c2ccc(OCCN3CCOCC3)cc2C1(O)c1ccccc1 (centres unmarked) [Compound 8, 1-hydroxy-6-(2-morpholine-4-yl-ethoxy)-1,3-diphenyl-1H-indene-2-carboxylic acid ethyl ester]
- pEC50 (human PPARγ): 7.12
- melting point: 121 to 123 °C

SMILES: CCOC(=O)C1=C(c2ccccc2)c2ccc(OC)cc2C1(C)O (centres unmarked) [Compound 4, 1-hydroxy-6-methoxy-1-methyl-3-phenyl-1H-indene-2-carboxylic acid ethyl ester]
- pEC50 (human PPARγ): 6.64

SMILES: CCOC(=O)C1=C(c2ccccc2)c2ccc(OC)cc2C1(O)C(C)C (centres unmarked) [Compound 3, 1-hydroxy-1-isopropyl-6-methoxy-3-phenyl-1H-indene-2-carboxylic acid ethyl ester]
- pEC50 (human PPARγ): 6.60

SMILES: COc1ccc2c(c1)C(O)(Cc1ccccc1)C(C(=O)O)=C2c1ccccc1 (centres unmarked) [Compound 15, 1-benzyl-1-hydroxy-6-methoxy-3-phenyl-1H-indene-2-carboxylic acid]
- pEC50 (human PPARγ): 6.64

SMILES: CCOC(=O)C1=C(c2ccccc2)c2ccc(OCCCc3ccccc3)cc2C1(O)c1ccccc1 (centres unmarked) [Compound 7, 1-hydroxy-1,3-diphenyl-6-(3-phenyl-propoxy)-1H-indene-2-carboxylic acid ethyl ester]
- pEC50 (human PPARγ): 7.60

SMILES: CCOC(=O)C1=C(c2ccccc2)c2ccc(OCCN3CCOCC3)cc2C1(O)c1ccccc1 (centres unmarked) [The Inventive Compound, 1-hydroxy-6-(2-morpholine-4-yl-ethoxy)-1,3-diphenyl-1H-indene-2-carbo-xylic acid ethyl ester]
- Side effects (summary in words) (C57/BL6J mice [1]; administered orally or intraperitoneally): no side effects such as weight gain, hepatotoxicity or cardiotoxicity
- GOT (C57/BL6J mice [1]): 35 ± 6.2 karmen
- GPT (C57/BL6J mice [1]): 47 ± 6.5/ karmen
- Heart Weight (C57/BL6J mice [1]): 0.117 ± 0.012 g
- Liver Weight (C57/BL6J mice [1]): 1.22 ± 0.10 g
- Weight (C57/BL6J mice [1]): 37 ± 2.0 g
- Extent of Inhibition (%) of blood glucose level (ob/ob mice [2]; Intraperitoneal Administration (50 mg/kg/day), once a day for 5 days): 32.0%
- Extent of Inhibition (%) of blood glucose level (ob/ob mice [2]; Oral Administration (100 mg/kg/day), 14 days): 23.7%
- Inhibition Ratio (%), Oral Glucose Tolerance Test (Glucose) (C57/BL6J mice [3]): 23.8%
- Inhibition Ratio (%), Oral Glucose Tolerance Test (Insulin) (C57/BL6J mice [3]): 56.2%
- Extent of Inhibition (%), Oral Glucose Tolerance Test (Blood Glucose) (ob/ob mice [4]): 10.2%
- Effect in lowering blood glucose and insulin levels (summary in words) (C57/BL6J mice [5]; administered orally or intraperitoneally, Tables 6, 7 and 8): excellent effect in lowering both blood glucose and insulin levels
- Inhibition Ratio (%), Blood Insulin level (C57/BL6J mice [5]; [6]): 44.6%
- Inhibition Ratio (%), Blood glucose level (C57/BL6J mice [5]; [6]): 30.0%

SMILES: CCOC(=O)C1=C(c2ccccc2)c2ccc(OC)cc2C1NC(=O)CC (centres unmarked) [Compound 25, 6-methoxy-3-phenyl-1-propionylamino-1H-indene-2-carboxylic acid ethyl ester]
- pEC50 (human PPARγ): 7.92

SMILES: CN(CCOc1ccc(CC2SC(=O)NC2=O)cc1)c1ccccn1 (centres unmarked) [Rosiglitazone, reference compound]
- GOT (C57/BL6J mice [1]): 40 ± 7.1 karmen
- GPT (C57/BL6J mice [1]): 79 ± 8.3/ karmen
- Heart Weight (C57/BL6J mice [1]): 0.133 ± 0.004 g
- Liver Weight (C57/BL6J mice [1]): 1.35 ± 0.14 g
- Weight (C57/BL6J mice [1]): 40 ± 1.6 g

SMILES: CCOC(=O)C1=C(c2ccccc2)c2ccc(OC)cc2C1NC1CCCCC1 (centres unmarked) [Compound 32, 1-cyclohexyl amino-6-methoxy-3-phenyl-1H-indene-2-carboxylic acid ethyl ester]
- pEC50 (human PPARγ): 6.60

SMILES: CCOC(=O)C1=C(c2ccccc2)c2ccc(OC)cc2C1(O)C1CCCCC1 (centres unmarked) [Compound 6, 1-cyclohexyl-1-hydroxy-6-methoxy-3-phenyl-1H-indene-2-carboxylic acid ethyl ester]
- pEC50 (human PPARγ): 7.30

SMILES: CCOC(=O)C1=C(c2ccccc2)c2ccc(OC)cc2C1NC(C)=O (centres unmarked) [Compound 24, 1-acetylamino-6-methoxy-3-phenyl-1H-indene-2-carboxylic acid ethyl ester]
- pEC50 (human PPARγ): 7.30

SMILES: CCOC(=O)C1=C(c2ccccc2)c2ccc(OC)cc2C1OCC (centres unmarked) [Compound 19, 1-ethoxy-6-methoxy-3-phenyl-1H-indene-2-carboxylic acid ethyl ester]
- pEC50 (human PPARγ): 7.70

SMILES: CCOC(=O)C1=C(c2ccccc2)c2ccc(OCCc3ccccn3)cc2C1(O)c1ccccc1 (centres unmarked) [Compound 10, 1-hydroxy-1,3-diphenyl-6-(2-pyridine-2-yl-ethoxy)-1H-indene-2-carboxylic acid ethyl ester]
- pEC50 (human PPARγ): 6.82

SMILES: N#CC1=C(c2ccccc2)c2ccc(OCCCc3ccccc3)cc2C1(O)c1ccccc1 (centres unmarked) [Compound 11, 1-hydroxy-1,3-diphenyl-6-(3-phenyl-propoxy)-1H-indene-2-carbonitrile]
- pEC50 (human PPARγ): 7.00

SMILES: CCOC(=O)C1=C(c2ccccc2)c2ccc(OC)cc2C1OC (centres unmarked) [Compound 18, 1,6-dimethoxy-3-phenyl-1H-indene-2-carboxylic acid ethyl ester]
- pEC50 (human PPARγ): 7.35

SMILES: CCOC(=O)C1=C(c2ccccc2)c2ccc(OCCCc3ccccc3)cc2C1NC(C)=O (centres unmarked) [Compound 26, 1-acetylamino-3-phenyl-6-(3-phenyl-propoxy)-1H-indene-2-carboxylic acid ethyl ester]
- pEC50 (human PPARγ): 7.40

SMILES: CCOC(=O)C1=C(c2ccccc2)c2ccc(OC)cc2C1(O)Cc1ccccc1 (centres unmarked) [Compound 5, 1-benzyl-1-hydroxy-6-methoxy-3-phenyl-1H-indene-2-carboxylic acid ethyl ester]
- pEC50 (human PPARγ): 7.02
